# ± gives the expanded uncertainty stated by the source.
# Test: mn = molality of the nth substance listed, in mol/kg
# Conditions: 101 kPa, Liquid; for speed of sound: Frequency=1.999 MHz, Sing-around technique in a fixed-path interferometer; for mass density: Vibrating tube method
smiles,measurement,setting,value
C[N+](C)(C)CC(=O)[O-] [(trimethylammonio)acetate] + O,speed of sound,"288.15 K, m1 = 0.0482",1471.1 ± 10 m/s
same,speed of sound,"288.15 K, m1 = 0.1063",1477.4 ± 10 m/s
same,speed of sound,"288.15 K, m1 = 0.5027",1517.6 ± 10 m/s
same,speed of sound,"288.15 K, m1 = 1.002",1562.8 ± 10 m/s
same,speed of sound,"288.15 K, m1 = 1.504",1599.7 ± 10 m/s
same,speed of sound,"288.15 K, m1 = 2.005",1628.1 ± 10 m/s
same,speed of sound,"288.15 K, m1 = 2.519",1648.9 ± 10 m/s
same,speed of sound,"288.15 K, m1 = 3.008",1658.3 ± 10 m/s
same,mass density,"288.15 K, m1 = 0.0482",1000.1 ± 2 kg/m3
same,mass density,"288.15 K, m1 = 0.1063",1001.2 ± 2 kg/m3
same,mass density,"288.15 K, m1 = 0.5027",1008.5 ± 2 kg/m3
same,mass density,"288.15 K, m1 = 1.002",1016.8 ± 2 kg/m3
same,mass density,"288.15 K, m1 = 1.504",1024.3 ± 2 kg/m3
same,mass density,"288.15 K, m1 = 2.005",1030.9 ± 2 kg/m3
same,mass density,"288.15 K, m1 = 2.519",1036.6 ± 2 kg/m3
same,mass density,"288.15 K, m1 = 3.008",1041.8 ± 2 kg/m3
same,speed of sound,"293.15 K, m1 = 0.0482",1487.7 ± 10 m/s
same,speed of sound,"293.15 K, m1 = 0.1063",1493.8 ± 10 m/s
same,speed of sound,"293.15 K, m1 = 0.5027",1535.4 ± 10 m/s
same,speed of sound,"293.15 K, m1 = 1.002",1580.7 ± 10 m/s
same,speed of sound,"293.15 K, m1 = 1.504",1619.5 ± 10 m/s
same,speed of sound,"293.15 K, m1 = 2.005",1649.8 ± 10 m/s
same,speed of sound,"293.15 K, m1 = 2.519",1670.4 ± 10 m/s
same,speed of sound,"293.15 K, m1 = 3.008",1680.1 ± 10 m/s
same,mass density,"293.15 K, m1 = 0.0482",999.1 ± 2 kg/m3
same,mass density,"293.15 K, m1 = 0.1063",1000.2 ± 2 kg/m3
same,mass density,"293.15 K, m1 = 0.5027",1007.2 ± 2 kg/m3
same,mass density,"293.15 K, m1 = 1.002",1015.1 ± 2 kg/m3
same,mass density,"293.15 K, m1 = 1.504",1022.1 ± 2 kg/m3
same,mass density,"293.15 K, m1 = 2.005",1028.1 ± 2 kg/m3
same,mass density,"293.15 K, m1 = 2.519",1033.6 ± 2 kg/m3
same,mass density,"293.15 K, m1 = 3.008",1038.5 ± 2 kg/m3
same,speed of sound,"298.15 K, m1 = 0.0482",1501.6 ± 10 m/s
same,speed of sound,"298.15 K, m1 = 0.1063",1507.6 ± 10 m/s
same,speed of sound,"298.15 K, m1 = 0.5027",1547.2 ± 10 m/s
same,speed of sound,"298.15 K, m1 = 1.002",1593.1 ± 10 m/s
same,speed of sound,"298.15 K, m1 = 1.504",1630 ± 10 m/s
same,speed of sound,"298.15 K, m1 = 2.005",1656.8 ± 10 m/s
same,speed of sound,"298.15 K, m1 = 2.519",1674.5 ± 10 m/s
same,speed of sound,"298.15 K, m1 = 3.008",1698.9 ± 10 m/s
same,mass density,"298.15 K, m1 = 0.0482",997.9 ± 2 kg/m3
same,mass density,"298.15 K, m1 = 0.1063",998.9 ± 2 kg/m3
same,mass density,"298.15 K, m1 = 0.5027",1005.6 ± 2 kg/m3
same,mass density,"298.15 K, m1 = 1.002",1013.1 ± 2 kg/m3
same,mass density,"298.15 K, m1 = 1.504",1019.9 ± 2 kg/m3
same,mass density,"298.15 K, m1 = 2.005",1025.8 ± 2 kg/m3
same,mass density,"298.15 K, m1 = 2.519",1031 ± 2 kg/m3
same,mass density,"298.15 K, m1 = 3.008",1035.4 ± 2 kg/m3
same,speed of sound,"303.15 K, m1 = 0.0482",1514.1 ± 10 m/s
same,speed of sound,"303.15 K, m1 = 0.1063",1520 ± 10 m/s
same,speed of sound,"303.15 K, m1 = 0.5027",1558.6 ± 10 m/s
same,speed of sound,"303.15 K, m1 = 1.002",1602.3 ± 10 m/s
same,speed of sound,"303.15 K, m1 = 1.504",1639.6 ± 10 m/s
same,speed of sound,"303.15 K, m1 = 2.005",1669.8 ± 10 m/s
same,speed of sound,"303.15 K, m1 = 2.519",1689.7 ± 10 m/s
same,speed of sound,"303.15 K, m1 = 3.008",1715.2 ± 10 m/s
same,mass density,"303.15 K, m1 = 0.0482",996.6 ± 2 kg/m3
same,mass density,"303.15 K, m1 = 0.1063",997.6 ± 2 kg/m3
same,mass density,"303.15 K, m1 = 0.5027",1004.2 ± 2 kg/m3
same,mass density,"303.15 K, m1 = 1.002",1011.6 ± 2 kg/m3
same,mass density,"303.15 K, m1 = 1.504",1018 ± 2 kg/m3
same,mass density,"303.15 K, m1 = 2.005",1023.5 ± 2 kg/m3
same,mass density,"303.15 K, m1 = 2.519",1028.4 ± 2 kg/m3
same,mass density,"303.15 K, m1 = 3.008",1032.8 ± 2 kg/m3
same,speed of sound,"308.15 K, m1 = 0.0482",1524.2 ± 10 m/s
same,speed of sound,"308.15 K, m1 = 0.1063",1529.9 ± 10 m/s
same,speed of sound,"308.15 K, m1 = 0.5027",1567.5 ± 10 m/s
same,speed of sound,"308.15 K, m1 = 1.002",1610.2 ± 10 m/s
same,speed of sound,"308.15 K, m1 = 1.504",1648.1 ± 10 m/s
same,speed of sound,"308.15 K, m1 = 2.005",1679.8 ± 10 m/s
same,speed of sound,"308.15 K, m1 = 2.519",1700 ± 10 m/s
same,speed of sound,"308.15 K, m1 = 3.008",1726.5 ± 10 m/s
same,mass density,"308.15 K, m1 = 0.0482",994.9 ± 2 kg/m3
same,mass density,"308.15 K, m1 = 0.1063",995.9 ± 2 kg/m3
same,mass density,"308.15 K, m1 = 0.5027",1002.5 ± 2 kg/m3
same,mass density,"308.15 K, m1 = 1.002",1009.9 ± 2 kg/m3
same,mass density,"308.15 K, m1 = 1.504",1016.4 ± 2 kg/m3
same,mass density,"308.15 K, m1 = 2.005",1022 ± 2 kg/m3
same,mass density,"308.15 K, m1 = 2.519",1027.1 ± 2 kg/m3
same,mass density,"308.15 K, m1 = 3.008",1031.2 ± 2 kg/m3
same,speed of sound,"313.15 K, m1 = 0.0482",1533.4 ± 10 m/s
same,speed of sound,"313.15 K, m1 = 0.1063",1538.8 ± 10 m/s
same,speed of sound,"313.15 K, m1 = 0.5027",1574.2 ± 10 m/s
same,speed of sound,"313.15 K, m1 = 1.002",1615.7 ± 10 m/s
same,speed of sound,"313.15 K, m1 = 1.504",1652.3 ± 10 m/s
same,speed of sound,"313.15 K, m1 = 2.005",1682.8 ± 10 m/s
same,speed of sound,"313.15 K, m1 = 2.519",1705.9 ± 10 m/s
same,speed of sound,"313.15 K, m1 = 3.008",1737.1 ± 10 m/s
same,mass density,"313.15 K, m1 = 0.0482",993.1 ± 2 kg/m3
same,mass density,"313.15 K, m1 = 0.1063",994.1 ± 2 kg/m3
same,mass density,"313.15 K, m1 = 0.5027",1000.7 ± 2 kg/m3
same,mass density,"313.15 K, m1 = 1.002",1007.9 ± 2 kg/m3
same,mass density,"313.15 K, m1 = 1.504",1014.4 ± 2 kg/m3
same,mass density,"313.15 K, m1 = 2.005",1019.9 ± 2 kg/m3
same,mass density,"313.15 K, m1 = 2.519",1025 ± 2 kg/m3
same,mass density,"313.15 K, m1 = 3.008",1029.1 ± 2 kg/m3
same,speed of sound,"318.15 K, m1 = 0.0482",1540.8 ± 10 m/s
same,speed of sound,"318.15 K, m1 = 0.1063",1546 ± 10 m/s
same,speed of sound,"318.15 K, m1 = 0.5027",1580.3 ± 10 m/s
same,speed of sound,"318.15 K, m1 = 1.002",1620.9 ± 10 m/s
same,speed of sound,"318.15 K, m1 = 1.504",1656.7 ± 10 m/s
same,speed of sound,"318.15 K, m1 = 2.005",1688.3 ± 10 m/s
same,speed of sound,"318.15 K, m1 = 2.519",1713.8 ± 10 m/s
same,speed of sound,"318.15 K, m1 = 3.008",1743.7 ± 10 m/s
same,mass density,"318.15 K, m1 = 0.0482",991.1 ± 2 kg/m3
same,mass density,"318.15 K, m1 = 0.1063",992.1 ± 2 kg/m3
same,mass density,"318.15 K, m1 = 0.5027",998.7 ± 2 kg/m3
same,mass density,"318.15 K, m1 = 1.002",1006 ± 2 kg/m3
same,mass density,"318.15 K, m1 = 1.504",1012.4 ± 2 kg/m3
same,mass density,"318.15 K, m1 = 2.005",1018 ± 2 kg/m3
same,mass density,"318.15 K, m1 = 2.519",1022.8 ± 2 kg/m3
same,mass density,"318.15 K, m1 = 3.008",1027.3 ± 2 kg/m3

# — the NIST ThermoML archive (doi:10.1016/j.tca.2013.08.002)
